From US20050043326A1, “Compounds” (Pfizer Inc, priority 2003, published 2005)

System: PDE4
Experiment: PDE4 inhibition: hydrolysis of tritium labelled cAMP to AMP, SPA bead scintillation counting
Format: biochemical
Conditions: tritium labelled cAMP incubated with PDE4, yttrium silicate SPA beads
Protocol: The PDE4 inhibitory activity of the nicotinamide derivatives of the formula (I) is determined by the ability of compounds to inhibit the hydrolysis of cAMP to AMP by PDE4 (Thompson J W, Teraski W L, Epstein P M, Strada S J., “Assay of nucleotidephosphodiesterase and resolution of multiple molecular forms of the isoenzyme”, Advances in cyclic nucleotides research, edited by Brooker G, Greengard P, Robinson G A. Raven Press, New York 1979, 10, p. 69-92). Tritium labelled cAMP is incubated with PDE4. Following incubation, the radiolabelled AMP produced is able to bind yttrium silicate SPA beads. These SPA beads subsequently produce light that can be quantified by scintillation counting. The addition of a PDE4 inhibitor prevents the formation of AMP from cAMP and counts are diminished. The IC50 of a PDE4 inhibitor can be defined as the concentration of a compound that leads to a 50% reduction in counts compared to the PDE4 only (no inhibitor) control wells.
(§1) Data are presented below for the Examples in which the TNFα and PDE4 inhibition are presented as IC50 values in nM.

SMILES	IC50
Cc1ccc(C(=O)N[C@H]2CC[C@@H](NC(=O)c3cc(F)cnc3OC3CCSCC3)CC2)c(O)c1 [Example 63, Syn-5-Fluoro-N-[4-(2-hydroxy-4-methyl-benzoylamino)-cyclohexyl]-2-(tetrahydro-thiopyran-4-yloxy)-nicotinamide]	500 pM
Cc1cc(C(=O)N[C@H]2CC[C@@H](NC(=O)c3cc(F)cnc3OC3CCSCC3)CC2)nn1C [Example 42]	300 pM

System: TNFα release from human peripheral blood mononuclear cells
Experiment: Inhibition of TNFα release from LPS-stimulated human peripheral blood mononuclear cells (TNFα screen)
Format: cell-based
Conditions: 18 hours incubation, TNFα in supernatant by ELISA
Protocol: Venous blood is collected from healthy volunteers and the mononuclear cells purified by centrifugation through Histopaque (Ficoll) cushions. TNFα production from these cells is stimulated by addition of lipopolysaccharide. After 18 hours incubation in the presence of LPS, the cell supernatant is removed and the concentration of TNFα in the supernatant determined by ELISA.
as §1

SMILES	IC50
O=C(NC1CCC(NS(=O)(=O)c2c(O)ccc3cccnc23)CC1)c1cc(F)cnc1OC1CCSCC1 (stereo not drawn) [Example 72, Syn-5-Fluoro-N-[4-(7-hydroxy-quinoline-8-sulfonylamino)-cyclohexyl]-2-(tetrahydro-thiopyran-4-yloxy)-nicotinamide]	1 pM
O=C(NC1CCC(NS(=O)(=O)c2c(O)ccc3cccnc23)CC1)c1cccnc1OC1CCSCC1 (stereo not drawn) [Example 73, Syn-N-[4-(7-hydroxy-quinoline-8-sulfonylamino)-cyclohexyl]-2-(tetrahydro-thiopyran-4-yloxy)-nicotinamide]	30 pM
O=C(N[C@H]1CC[C@@H](NC(=O)c2cc(Cl)cc(Cl)c2O)CC1)c1cc(F)cnc1OC1CCSCC1 [Example 26, Syn-N-[4-(3,5-Dichloro-2-hydroxy-benzoylamino)-cyclohexyl]-5-fluoro-2-(tetrahydro-thiopyran-4-yloxy)-nicotinamide]	14000 pM

Same assay, conditions: PBMC, 18 hours incubation, TNFα in supernatant by ELISA

SMILES	IC50
Cc1cc(C(=O)N[C@H]2CC[C@@H](NC(=O)c3cc(F)cnc3OC3CCSCC3)CC2)nn1CCO [Example 52, Syn-5-Fluoro-N-(4-{[1-(2-hydroxy-ethyl)-5-methyl-1H-pyrazole-3-carbonyl]-amino}-cyclohexyl)-2-(tetrahydro-thiopyran-4-yloxy)-nicotinamide]	30 pM
Cc1ccc(S(=O)(=O)N[C@H]2CC[C@@H](NC(=O)c3cc(F)cnc3OC3CCSCC3)CC2)cc1 [Example 69, Syn-5-Fluoro-2-(tetrahydro-thiopyran-4-yloxy)-N-[4-(toluene-4-sulfonylamino)-cyclohexyl]-nicotinamide]	15000 pM
O=C(N[C@H]1CC[C@@H](NC(=O)c2cc(F)cnc2OC2CCSCC2)CC1)c1ccc(O)cc1O [Example 58, Syn-N-[4-(2,4-Dihydroxy-benzoylamino)-cyclohexyl]-5-fluoro-2-(tetrahydro-thiopyran-4-yloxy)-nicotinamide]	1000 pM
O=C(N[C@H]1CC[C@@H](NC(=O)c2cc(F)cnc2OC2CCSCC2)CC1)c1ccccc1O [Example 29, Syn-5-Fluoro-N-[4-(2-hydroxy-benzoylamino)-cyclohexyl]-2-(tetrahydro-thiopyran-4-yloxy)-nicotinamide]	400 pM
Cc1cccc(C(=O)N[C@H]2CC[C@@H](NC(=O)c3cc(F)cnc3OC3CCSCC3)CC2)c1O [Example 28, Syn-5-Fluoro-N-[4-(2-hydroxy-3-methyl-benzoylamino)-cyclohexyl]-2-(tetrahydro-thiopyran-4-yloxy)-nicotinamide]	12000 pM
CCc1cc(C(=O)N[C@H]2CC[C@@H](NC(=O)c3cc(F)cnc3OC3CCSCC3)CC2)nn1CCO [Example 54, Syn-N-(4-{[5-Ethyl-1-(2-hydroxy-ethyl)-1H-pyrazole-3-carbonyl]-amino}-cyclohexyl)-5-fluoro-2-(tetrahydro-thiopyran-4-yloxy)-nicotinamide]	100 pM
O=C(N[C@H]1CC[C@@H](NC(=O)c2cccn3c(CO)cnc23)CC1)c1cc(F)cnc1OC1CCSCC1 [Example 51, Syn-3-Hydroxymethyl-imidazo[1,2-a]pyridine-8-carboxylic acid (4-{[5-fluoro-2-(tetrahydro-thiopyran-4-yloxy)-pyridine-3-carbonyl]-amino}-cyclohexyl)-amide]	100 pM
CC(C)c1cc(C(=O)N[C@H]2CC[C@@H](NC(=O)c3cc(F)cnc3OC3CCSCC3)CC2)n(CCO)n1 [Example 56, Syn-5-Fluoro-N-(4-{[2-(2-hydroxy-ethyl)-5-isopropyl-2H-pyrazole-3-carbonyl]-amino}-cyclohexyl)-2-(tetrahydro-thiopyran-4-yloxy)-nicotinamide]	20000 pM
O=C(N[C@H]1CC[C@@H](NC(=O)c2cc(F)cnc2OC2CCSCC2)CC1)c1ccc2cn[nH]c2c1 [Example 34, Syn-1H-Indazole-6-carboxylic acid (4-{[5-fluoro-2-(tetrahydro-thiopyran-4-yloxy)-pyridine-3-carbonyl]-amino}-cyclohexyl)-amide]	1000 pM
Cc1ccc(C(=O)N[C@H]2CC[C@@H](NC(=O)c3cc(F)cnc3OC3CCSCC3)CC2)c(O)c1 [Example 63, Syn-5-Fluoro-N-[4-(2-hydroxy-4-methyl-benzoylamino)-cyclohexyl]-2-(tetrahydro-thiopyran-4-yloxy)-nicotinamide]	2 pM
Cc1cc(C(=O)N[C@H]2CC[C@@H](NC(=O)c3cc(F)cnc3OC3CCSCC3)CC2)nn1C [Example 42]	20 pM
Cc1cnc2c(C(=O)N[C@H]3CC[C@@H](NC(=O)c4cc(F)cnc4OC4CCSCC4)CC3)cccn12 [Example 60, Syn-3-Methyl-imidazo[1,2a]pyridine-8-carboxylic acid (4-{[5-fluoro-2-(tetrahydro-thiopyran-4-yloxy)-pyridine-3-carbonyl]-amino}-cyclohexyl)-amide]	60 pM
O=C(N[C@H]1CC[C@@H](NC(=O)c2cc(Cl)cnc2OC2CCSCC2)CC1)c1cc(CO)ccc1O [Example 61, Syn-5-Chloro-N-[4-(2-hydroxy-5-hydroxymethyl-benzoylamino)-cyclohexyl]-2-(tetrahydro-thiopyran-4-yloxy)-nicotinamide]	3000 pM
O=C(N[C@H]1CC[C@@H](NC(=O)c2cc(O)nc3ccccc23)CC1)c1cc(F)cnc1OC1CCSCC1 [Example 30, Syn-2-Hydroxy-guinoline-4-carboxylic acid (4-{[5-fluoro-2-(tetrahydro-thiopyran-4-yloxy)-pyridine-3-carbonyl]-amino}-cyclohexyl)-amide]	2000 pM
O=C(N[C@H]1CC[C@@H](NC(=O)c2cc(F)cnc2OC2CCSCC2)CC1)c1ccc(Cl)cc1O [Example 15, Syn-N-[4-(4-Chloro-2-hydroxy-benzoylamino)-cyclohexyl]-5-fluoro-2-(tetrahydro-thiopyran-4-yloxy)-nicotinamide]	400 pM
O=C(N[C@H]1CC[C@@H](NC(=O)c2ccnc3c(O)cccc23)CC1)c1cc(F)cnc1OC1CCSCC1 [Example 32, Syn-8-Hydroxy-quinoline-4-carboxylic acid (4-{[5-fluoro-2-(tetrahydro-thiopyran-4-yloxy)-pyridine-3-carbonyl]-amino}-cyclohexyl)-amide]	10000 pM
Cc1ccccc1S(=O)(=O)N[C@H]1CC[C@@H](NC(=O)c2cc(F)cnc2OC2CCSCC2)CC1 [Example 70, Syn-5-Fluoro-2-(tetrahydro-thiopyran-4-yloxy)-N-[4-(toluene-2-sulfonylamino)-cyclohexyl]-nicotinamide]	2000 pM
O=C(N[C@H]1CC[C@@H](NC(=O)c2cc(F)cnc2OC2CCSCC2)CC1)c1cc(Cl)ccc1O [Example 27, Syn-N-[4-(5-Chloro-2-hydroxy-benzoylamino)-cyclohexyl]-5-fluoro-2-(tetrahydro-thiopyran-4-yloxy)-nicotinamide]	700 pM
O=C(N[C@H]1CC[C@@H](NC(=O)c2cccc3cn[nH]c23)CC1)c1cc(F)cnc1OC1CCSCC1 [Example 33, Syn-1H-Indazole-7-carboxylic acid (4-{[5-fluoro-2-(tetrahydro-thiopyran-4-yloxy)-pyridine-3-carbonyl]-amino}-cyclohexyl)-amide]	70 pM
CCc1cc(C(=O)N[C@H]2CC[C@@H](NC(=O)c3cc(F)cnc3OC3CCSCC3)CC2)n(CCO)n1 [Example 55, Syn-N-(4-{[5-Ethyl-2-(2-hydroxy-ethyl)-2H-pyrazole-3-carbonyl]-amino}-cyclohexyl)-5-fluoro-2-(tetrahydro-thiopyran-4-yloxy)-nicotinamide]	17000 pM
Cc1cnc(OC2CCSCC2)c(C(=O)N[C@H]2CC[C@@H](NC(=O)c3cc(CO)ccc3O)CC2)c1 [Example 62, Syn-N-[4-(2-Hydroxy-5-hydroxymethyl-benzoylamino)-cyclohexyl]-5-methyl-2-(tetrahydro-thiopyran-4-yloxy)-nicotinamide]	12000 pM
O=C(N[C@H]1CC[C@@H](NC(=O)c2nn(CCO)c3ccccc23)CC1)c1cc(F)cnc1OC1CCSCC1 [Example 53, Syn-1-(2-Hydroxy-ethyl)-1H-indazole-3-carboxylic acid (4-{[5-fluoro-2-(tetrahydro-thiopyran-4-yloxy)-pyridine-3-carbonyl]-amino}-cyclohexyl)-amide]	10 pM
Cc1cc(C(=O)N[C@H]2CC[C@@H](NC(=O)c3cc(F)cnc3OC3CCSCC3)CC2)c2cc(O)ccc2n1 [Example 31, Syn-6-Hydroxy-2-methyl-quinoline-4-carboxylic acid (4-{[5-fluoro-2-(tetrahydro-thiopyran-4-yloxy)-pyridine-3-carbonyl]-amino}-cyclohexyl)-amide]	1000 pM
O=C(N[C@H]1CC[C@@H](NC(=O)c2cc(F)cnc2OC2CCSCC2)CC1)c1cc(F)ccc1O [Example 25, Syn-5-Fluoro-N-[4-(5-fluoro-2-hydroxy-benzoylamino)-cyclohexyl]-2-(tetrahydro-thiopyran-4-yloxy)-nicotinamide]	800 pM
CC(C)c1cc(C(=O)N[C@H]2CC[C@@H](NC(=O)c3cc(F)cnc3OC3CCSCC3)CC2)nn1CCO [Example 57, Syn-5-Fluoro-N-(4-{[1-(2-hydroxy-ethyl)-5-isopropyl-1H-pyrazole-3-carbonyl]-amino}-cyclohexyl)-2-(tetrahydro-thiopyran-4-yloxy)-nicotinamide]	70 pM
